Laboratory results from patent US6855505B2, “Method for quantifying TGF-β” (Renovo Limited, priority 1998, dated 2005).

Tests used:
rat incisional wounds [1] = assay: Scarring in rat incisional wound model; assay type: in vivo
From the text: (§1) Adult male Sprague-Dawley rats (Charles River UK Ltd, Kent, UK) weighing 225-250 g were anaesthetised by inhalation of halothane, nitrous oxide, and oxygen. The back of the rats was shaved, and four full-thickness linear incisions of 1 cm length, including the panniculus carnosus, were made on the back of the animals using a scalpel as described in Shah et al., “Control of scarring in adult wounds by neutralising antibody to transforming growth factor β, Lancet. 339: 213-214, 1992. The wounds were left unsutured to heal by secondary intention. The animals were allowed to recover, housed separately, and fed ad libitum until the wounds were harvested. The animals were killed by chloroform overdose at 1 hour, 6 hour, or 1, 2, 3, 4, 5, 7, 10 and 14 days post-wounding. The wounds were harvested and processed as described below. All animal experiments were carried out under appropriate licences according to UK Home Office regulations.
Briefly, rat incisional wounds were treated with 1 mM monodansylcadaverine (MDC), a potent inhibitor of Transglutaminase activity. The wounds were prepared and assayed as described previously.
(§2) Briefly, rat incisional wounds were treated with 100 μM kistrin, then prepared and assayed as described previously.

total TGF-β = assay: Total TGF-β (active plus latent) in heat-activated wound cryosections, PAI/L assay; assay type: in vivo, rat; conditions: for level of total TGF-β in treated wounds compared with control wounds: M6P 100 mM, 100 μl/wound/day; for level of total TGF-β in treated wounds compared to controls: 100 μM kistrin
From the text: as §1
(§3) The wound area was swabbed with 70% ethanol. The wounds were carefully dissected from surrounding tissue and subsequently embedded in 8% sterile methyl cellulose (Sigma, Dorset, UK) and snap frozen in liquid nitrogen. Four wounds from each animal were embedded in one block of methyl cellulose. Four tissue samples of equivalent size representing surrounding tissue adjacent to the wound were also excised and processed as described above. Normal skin from the back of non-wounded rats was used as a control. The embedded tissue samples were stored at −80° C. for a maximum of 3 months. Thick cryosections (20 μm) were cut and placed on sterilised 13-mm round coverslips and analysed in duplicate. The coverslips, each carrying 4 cryosections of the wound, were placed into a 24-well cell culture plate and temporarily stored at −20° C. until transferred onto mink lung epithelial cells (MLECs).
In order to measure total TGF-β (active plus latent) in the wound tissue samples, the coverslips carrying the cryosections were submerged in 500 μl of DMEM-BSA medium in a sterile glass embryo dish (BDH, Merck, Leics., UK) and incubated for 20 minutes at 80° C. in order to heat activate latent TGF-β. Following heat activation, the coverslips were transferred, together with the medium, onto MLECs for TGF-β quantification in the PAI/L assay according to Example 1. Similar results were obtained in three separate experiments.
(§4) 20 animals each received 4 wounds which were subsequently treated with M6P (100 mM, 100 μl/wound/day). Animals were killed at 1 and 6 hours and 1, 3, 5, 7, 10 and 14 days post wounding. The wounds were dissected and embedded in methyl cellulose, then snap frozen. The tissue samples were subsequently prepared for use in the modified PAI-1/L assay.
as §2

rat incisional wounds [2] = conditions: application into rat dermal wounds; earlier studies; cited from earlier work
active TGF-β = assay: Active TGF-β in wound cryosections, modified PAI/L assay; assay type: in vivo, rat; conditions: for level of active TGF-β in treated wounds compared with PBS controls: M6P 100 mM, 100 μl/wound/day; for level of active TGF-β in treated wounds compared to controls: 100 μM kistrin
From the text: as §1, §3
Referring to FIG. 1, the original PAI/L assay for the quantification of TGF-β in liquid samples was modified in order to measure active/latent TGF-β levels in a tissue section of a wound site to provide an indication of the levels at the wound site in vivo. As shown in FIG. 1A MLECs (10) were plated for 4 h into 24-well plates. one well (12) being represented in FIG. 1A (3×10^5/ml, 500 μl/well) in complete DMEM and incubated for 4 hours at 37° C. Then, serum-containing medium was replaced with 500 μl of DMEM containing 0.1% pyrogen-poor BSA (from Pierce, Rockford, Ill., USA), aprotinin (1 μg/ml) (from Sigma, Dorset, UK) penicillin (100 U/ml) and streptomyciln (100 μg/ml), designated DMEM-BSA medium (14). The coverslips (16) carrying cryosections (18) were placed upside down onto the MLECs (10) in the 24-well plates.
These serial dilutions were added to the MLECs (10) together with methyl-cellulose coated coverslips (16).
Both samples and TGF-β standards were incubated with the MLECs (10) overnight at 37° C. MLECs (10) were then washed with phosphate buffered saline (PBS) and lysed with 200 μl of luciferase cell lysis buffer (from Analytical Luminescence Laboratory, Ann Arbor, USA) for 20 minutes at room temperature. Forty-five microliters of the lysates was transferred in triplicate to a Microlite 96-well plate (Dynatech Laboratories Inc. Chantilly, Va., USA). Luciferase activity in the lysates was determined using an MLX Microtiter Plate Luminometer (Dynex Technologies, Chantilly, Va., USA).
as §4
Briefly, rat incisional wounds were treated with 1 mM monodansylcadaverine (MDC), a potent inhibitor of Transglutaminase activity. The wounds were prepared and assayed as described previously. […]

latent TGF-β = assay: Latent TGF-β in wound sections; assay type: in vivo, rat; conditions: 100 μM kistrin; 1 hour post wounding
Method: as §2

[3] = rat incisional wounds treated with 1 mM MDC

O=C[C@@H](O)[C@@H](O)[C@H](O)[C@H](O)COP(=O)(O)O [M6P, mannose-6-phosphate]
scarring (rat incisional wounds [1]; local administration of M6P, rat incisional wound model, previously demonstrated by the applicant): significantly reduces scarring
level of total TGF-β in treated wounds compared with control wounds (total TGF-β; 6 hours post wounding): higher than controls
level of total TGF-β in treated wounds compared with control wounds (total TGF-β; 5 days post wounding): higher than controls
level of total TGF-β in treated wounds compared with control wounds (total TGF-β; 7 days post wounding): less than controls
level of total TGF-β in treated wounds compared with control wounds (total TGF-β; 10 days post wounding): higher than controls
quality of scarring (rat incisional wounds [2]): improve the quality of scarring
level of active TGF-β in treated wounds compared with PBS controls (active TGF-β; 1 hour post wounding): less
level of active TGF-β in treated wounds compared with PBS controls (active TGF-β; 6 hours post wounding): less
level of active TGF-β in treated wounds compared with PBS controls (active TGF-β; 10 days post wounding): more active TGF-β than controls
level of active TGF-β in treated wounds compared with PBS controls (active TGF-β; after 6 hours until 10 days post wounding): comparable
reduction of levels of active TGF-β in vivo (overall conclusion) (active TGF-β; M6P treated rat wounds, early stages of wound repair): effective in reducing the levels of active TGF-β in vivo

CN(C)c1cccc2c(S(=O)(=O)NCCCCCN)cccc12 [MDC, monodansylcadaverine]
scarring (rat incisional wounds [1]; [3]): improves scarring
early TGF-β levels (active TGF-β; [3]): reduces early TGF-β levels
TGF-β activation in vivo (active TGF-β; rat incisional wounds treated with 1 mM MDC, FIG. 8): inhibits TGF-β activation in vivo

kistrin
antiscarring effect (rat incisional wounds [1]; kistrin treated rat incisional wounds): no antiscarring effect
level of total TGF-β in treated wounds compared to controls (total TGF-β; 1 hour post wounding): increased
level of total TGF-β in treated wounds compared to controls (total TGF-β; 5 days post wounding): no differences
amount of latent TGF-β compared to controls (latent TGF-β): no difference
level of active TGF-β in treated wounds compared to controls (active TGF-β; 1 hour post wounding): increased
level of active TGF-β in treated wounds compared to controls (active TGF-β; 5 days post wounding): no differences
